Where only a bound is given, the exact number is not on record here.

For orientation: melting point means the temperature, or range, at which the solid turns liquid.

`Cc1ccc(S(=O)(=O)N(c2ccc(C#N)cc2Cl)C(C)C)cc1` showed a melting point of 118 to 119 °C. For `Cc1[nH]ccc(=O)c1OCc1ccccc1` the value was 162 to 164 °C; for `CCOC(=O)N[C@@H]1CCc2c(ccc(OCc3ccccc3)c2C(=O)OC)[C@H]1O` (relative stereo), 147 to 148 °C; for `Cc1noc(C)c1C(C)(O)c1ccoc1` (stereo not given), 88 to 90 °C. Take `O=C(Nc1ccccn1)Nc1cccc2c1C1CCCCN1C2=O` (stereo not given): the melting point worked out at 142 °C.

As for `O=C(NCC(O)c1cccc(OCc2ccc3ccccc3n2)c1)c1ccccn1` (stereo not given), the melting point was in the range of 126 to 129 °C. For `O=C(NCc1ccncc1)c1cccc2c1OCCO2` the value was 120 to 121 °C. Molecule `O=C(NCC(=O)c1ccco1)c1ccccc1` showed a melting point of 132 to 133 °C. Then `Cc1cc(C)nc(NC(=O)NS(=O)(=O)c2ccccc2S(=O)(=O)N(C)OCc2ccccc2)n1`, with 186 to 192 °C; and `COC(=O)c1ccc2nc3c(C)sc(C)c3c(=O)n2c1`, with 209 to 210 °C. Regarding `COC(=O)/C=C/n1cnc2c(OC)cc(OC)cc2c1=O`, the melting point was 224 to 226 °C. Consider `CSc1ccc(-c2nc(SC)c(C#N)c(=O)n2-c2ccc(C)cc2)cc1`, for which the melting point lay in the range of 196 to 198 °C. `Cc1nc2c(NC(=O)OCCc3ccc([N+](=O)[O-])cc3)nc(=O)n(C3CC(O)C(CO)O3)c2nc1C` (stereo not given) came in with a melting point of 154 to 155 °C. The molecule `Nc1ncccc1-c1nc2ccc(-c3cccnc3)nc2n1-c1ccc(CC(=O)Nc2ccccc2)cc1` yielded a melting point of 162 to 164 °C. `CC(C)(C)OC(=O)N1CC=C(c2nc3c(Cl)cccc3s2)CC1` registered a melting point of 98 to 101 °C. Molecule `Cc1nc2ccc3c(c2s1)C(=CC#N)CC3` showed a melting point of 194 to 195 °C. For `COC(=O)CCCCC1C(C(=O)OC)=C(C)NC(C)=C1C(=O)OC` the value was 80 to 81 °C; for `COC(=O)CNC(=O)c1ccc(NS(=O)(=O)c2ccc(F)cc2)cn1`, 146 to 148 °C; for `COCCNC(=O)c1cnc(C(=O)O)c(OC)c1`, 160 to 161 °C. `Cc1ccc(S(=O)(=O)N2C(=O)N(c3ccc(Cl)cc3)C(C)(O)C2O)cc1` (stereo not given) came in with a melting point of 60 to 70 °C.

In the case of `COC(=O)C(C)(C)CC(=O)c1ccc(-n2ccnc2)cc1`, the melting point was in the range of 89 to 93 °C.

Take `OCCNN=C(Cc1ccncc1)c1ccc(F)cc1`: the melting point is 122 to 123 °C. With `Oc1nc2cc(F)c(F)cc2nc1O`, the melting point is > 310 °C. For `O=C1CC(c2ccccc2)c2ccc(Cl)cc21` (stereo not given), the melting point is 84 to 92 °C. In the case of `Cc1ccc(-n2nc(C(=O)CCCO)cc2-c2ccc(S(C)(=O)=O)cc2)cc1`, the melting point fell in the range of 159 to 161 °C. In the case of `CN(CCOc1ccc(CC(Cl)C(N)=O)cc1)c1nc2ccccc2o1` (stereo not given), the melting point was 149 to 151 °C. `O=C1Nc2ccc(Br)cc2C1c1ncnc2nn(C3CCCCC3)cc12` (stereo not given): the melting point fell in the range of 285 to 290 °C. Molecule `O=[N+]([O-])C=C1NCCCCN1` came in with a melting point of 152 to 154 °C. In turn, `CCOC(=O)C(=O)Nc1cc(C)nc(N2CCc3ccccc3C2)c1` registered a melting point of 128 to 129 °C.

`O=C(O)CCCCCCCCCSc1ccccc1O` had a melting point of 58 to 59 °C.

`CC(=O)NC1=NN(c2ccc(F)cc2)C(C)C1` (stereo not given) gave a melting point of 136 to 138 °C. In turn, `ON=Cc1cn2c(n1)COc1ccccc1-2` showed a melting point of 232 to 233 °C. For the molecule `O=CNc1ncc(C#Cc2ccc(Cl)cc2)c(Sc2ccc(O)cc2)n1`, the melting point was 261 to 262 °C. Molecule `CCN(c1cccc(OC)c1)c1nc(=O)c2cccnc2s1` had a melting point of 136 °C. The molecule `CC(C)c1nc(CCCO)n(CCO)c1Sc1cc(Cl)cc(Cl)c1` had a melting point of 155 to 163 °C. As to `COCCONC(=O)c1nc(-c2ccc(Cl)c(OC)c2F)cc(N)c1Cl`, the melting point was 155 to 157 °C. The molecule `CCCN(CCCc1c[nH]c2ccc(F)cc12)C1COc2c(ccc3ncccc23)C1` (stereo not given) returned a melting point of 134 °C. The molecule `CSc1ccc(-c2nc(S)[nH]c2-c2ccc(SC)cc2)cc1` showed a melting point of 280 °C. `CC(=O)Nc1ccc(C[C@H](NC(=O)N(CCOC(C)=O)CCc2ccccc2)C(=O)NCCN(C)C)cc1` showed a melting point of 87 to 100 °C. For the molecule `CC(C)Oc1cc(N2C(=O)C3COCCN3C2C(=O)O)c(F)cc1Cl` (stereo not given), the melting point lay in the range of 59 to 61 °C. The molecule `COc1ccc2nc3ccc(C(C)=O)cn3c(=O)c2c1` yielded a melting point of 194 to 196 °C.

`CCOC(=O)C(C#N)(Cc1cc(OC)c(OC)c(OC)c1)C(OCC)OCC` (stereo not given): the melting point lay within 95 to 97 °C.

The molecule `Cn1cc(-c2ccccc2)c(=O)c(-c2ccc(Cl)cc2)c1` had a melting point of 142 °C. Turning to `COc1c(C)cnc(CSc2nc3ncccc3[nH]2)c1C`, the melting point lay in the range of 186 to 188 °C. With `CC1=NN=C(c2ccc([N+](=O)[O-])cc2)c2cc(Cl)ccc2C1`, the melting point fell in the range of 199 to 203 °C. Consider `N#Cc1cccc(NC(=O)CN2CCC(Cc3ccccc3)CC2)c1`, for which the melting point lay in the range of 88 to 90 °C. `CCOC(=O)COc1cccc(N)c1` returned a melting point of 162 to 164 °C. `CC(C)n1nc2ccc(Cl)c([N+](=O)[O-])c2n1` yielded a melting point of 67 to 70 °C. As for `COc1cc(OC)cc(N2CCN(C(=O)N(CC3CC3)c3cc4ccccc4nc3OC)CC2)c1`, the melting point fell in the range of 118 to 120 °C. `O=c1[nH]c2ccccc2n1CCN1CCC(C(c2ccccc2)c2ccccc2)CC1` had a melting point of 195 to 196 °C. The molecule `Cc1cccc(CC(=O)O)c1OCCCc1cc(OC(C)C)nn1Cc1ccc(Cl)cc1Cl` registered a melting point of 70 to 71 °C. The molecule `Cc1cc(-n2nc(C#N)cc2-c2ccc(S(C)(=O)=O)cc2)ccc1F` showed a melting point of 144 °C. For `CS(=O)c1ccc(C2=C(c3cccc(F)c3)C(=O)C(C)(C)O2)cc1` (stereo not given), the melting point lay within 143 to 144 °C. Molecule `C#CCN1CCN(C2Cc3ccc(C)cc3Sc3ccc(F)cc32)CC1` (stereo not given) came in with a melting point of 168 to 174 °C. Then `CCOC=C1C(=O)N(c2cccc(Cl)c2)c2ccccc21`, with 132 to 134 °C. With `CCCCCCCCCCCCC(C)COc1ccc(C(C)=O)o1` (stereo not given), the melting point was in the range of 45 to 47 °C. As to `O=C(O)CCCCc1ccc2cncn2c1`, the melting point lay in the range of 168 to 171 °C.

Take `CS(=O)(=O)c1ccc(C2=NN(S(=O)(=O)c3ccc(I)cc3)CCC2)cc1`: the melting point lay in the range of 198 to 204 °C. The molecule `NC(=O)N1C(=O)Cc2cc(C(=O)c3ccccc3)ccc21` gave a melting point of 210 to 211 °C. `CC(=C1SC(=O)NC1=O)c1cccc(OCCOc2c(-c3ccc(F)c(F)c3)n(C)c3ccccc3c2=O)c1`: the melting point was 236 to 240 °C. On to `CCOC(=O)c1nnc2ccc(NC(=O)c3ccccc3OC(C)=O)cc2c1O`, for which the melting point lay in the range of 240 to 242 °C.

The molecule `CCCCCCc1cnc(-c2ccc(C#N)cc2)nc1` had a melting point of 53.5 to 54.5 °C. Take `c1ccc(-c2nc3ccc(NCCCN4CCC(OC(c5ccccc5)c5ccccc5)CC4)nn3n2)cc1`: the melting point was 170 to 172 °C. The molecule `O=C(CCOc1cccc(-c2ccccc2)c1)NO` came in with a melting point of 113 to 116 °C. Regarding `CC1C(=O)N(c2cc(Cl)cc(Cl)c2)CS1=O` (stereo not given), the melting point lay in the range of 146 to 149 °C. `Nc1nc2c(ncn2COCCCOC(=O)c2ccccc2)c(=O)[nH]1`: the melting point is 198 to 201 °C. As for `COc1ccc(S(=O)(=O)Nc2c(Nc3ccccc3)ncnc2Nc2ccccc2)cc1`, the melting point fell in the range of 149 to 151 °C. Then `Cc1ccccc1CSc1c(O)cc(-c2ccccc2)oc1=O`, with 176 to 178 °C; and `CN1Cc2c(-c3nc(CN4C(=O)c5ccccc5C4=O)no3)ncn2-c2ccccc2C1=O`, with 239 to 240 °C. `COC(=O)CCC(=O)c1ccc(-c2ccccc2F)cc1` returned a melting point of 75.5 to 77.5 °C. In turn, `CS(=O)(=O)c1ccc(-c2cc(C(=O)CCCO)nn2-c2ccc(Br)cc2)cc1` had a melting point of 136 to 137 °C. In the case of `CCC1(CC)Nc2ccccc2-c2c([N+](=O)[O-])cnn21`, the melting point fell in the range of 132 to 134 °C. For `CCOC(=O)Nc1c(C#N)c(C(F)(F)F)nn1-c1c(Cl)cc(C(F)(F)F)cc1Cl`, the melting point lay within 177 to 179 °C. Turning to `O=Cc1ccc(OCc2ccccc2)cc1OCc1ccccc1`, the melting point lay in the range of 80 to 81 °C.

Turning to `CCCCCCCCCCNC(=O)c1cc(C(=O)NCCCCCCCCCC)cc(N(CCCC(=O)O)CCCC(=O)O)c1`, the melting point is 154 to 156 °C.

`C[C@@H]1CN(Cc2ccc(F)cc2)CCN1C(=O)/C=C/c1ccc(Cl)cc1NC(=O)N1CCNC1=O` yielded a melting point of 275 to 277 °C. Molecule `COc1ccc(CNc2cc(Cn3c(Oc4cc(C)cc(C)c4)c(C(C)C)c(=O)[nH]c3=O)cc(Cl)n2)cc1` gave a melting point of 223 to 225 °C. `Cc1nnc(S(=O)c2c(C)cccc2C)o1` (stereo not given) returned a melting point of 79 to 80 °C. Then `COc1cc(Nc2nc3cccc(-c4ccc(NC(C)=O)cc4)c3o2)cc(OC)c1OC`, with 265 to 270 °C; and `CN(C)Cc1c[nH]c2c(F)cccc12`, with 133 to 137 °C; and `COc1ccc(C(O)c2ccc(OC)c(OCc3ccccc3)c2)cc1OCc1ccccc1`, with 103 to 105 °C. For the molecule `CC1CC2=CC(=O)CCC2C2CCC3(C)C(O)CCC3C12` (stereo not given), the melting point lay in the range of 144 to 146 °C. For `COc1ccc2cc([C@H](C)C(=O)OCC(C)(O[N+](=O)[O-])O[N+](=O)[O-])ccc2c1` the value was 67 to 68 °C; for `CCOC(=O)/C=C(C)/C=C/C=C(\C)C1=Cc2cc(C)cc(C)c2OC1`, 122 °C. For `FC(F)C(F)(F)Oc1ccc(C=NNc2nc(Nc3ccc(OC(F)(F)F)cc3)nc(N3CCOCC3)n2)cc1` the value was 203 to 206 °C. For `Cc1c(C(=O)c2cc(O)c(O)c([N+](=O)[O-])c2)[nH]c2ccccc12`, the melting point fell in the range of 212 to 214 °C. For `O=C1CCC(Cc2ccc(Cl)cc2)CN1` (stereo not given) the value was 118 to 120 °C; for `O=C(O)Cn1c(=O)sc2ccc(O)cc21`, 217 to 221 °C. Then `COc1cc2c(Cl)c(C#N)cnc2cc1NC(C)=O`, with 230 to 235 °C; and `COc1cc(Br)ccc1C(C)CC(=O)C(=O)Nc1ccc2c(c1)COC2=O` (stereo not given), with 136 to 140 °C.

The record behind these values is a melting point compilation (Tetko et al.; mined from patent text by program, amines drawn as free bases though some values may be those of a salt).
